Experimental data reported in patent US7919493B2, “Anititumoral ecteinascidin derivatives” (Pharma Mar, S.A., priority 2001, dated 2011).
Values after ≈ are worked out from the molar mass of the structure shown.

How the values were obtained:
Assay type in all cases: cell-based
[1] = system: A-549 (monolayer culture of a human lung carcinoma); experiment: Cytotoxic activity screening, A-549 cells; settings: three days of incubation, Crystal Violet, approximate IC50; for IC50: Homo sapiens, A549, 72 h
Procedure: (§1) Cell Cultures. Cells were maintained in logarithmic phase of growth in Eagle's Minimum Essential Medium, with Earle's Balanced Salts, with 2.0 mM L-glutamine, with non-essential amino acids, without sodium bicarbonate (EMEM/neaa); supplemented with 10% Fetal Calf Serum (FCS), 10^−2 M sodium bicarbonate and 0.1 g/l penicillin-G+streptomycin sulfate.
(§2) A separate set of cultures without drug was seeded as control growth to ensure that cells remained in exponential phase of growth. All determinations were carried out in duplicate. After three days of incubation at 37° C., 10% CO2 in a 98% humid atmosphere, the wells were stained with 0.1% Crystal Violet. An approximately IC50 was determined by comparing the growth in wells with drug to the growth in wells control.

[2] = system: P-388 (suspension culture of a lymphoid neoplasm from DBA/2 mouse); experiment: Cytotoxic activity screening, P-388 cells; settings: three days of incubation, approximate IC50 vs control growth; for IC50: Mus musculus, P388, 72 h
Procedure: as §1
(§3) A simple screening procedure has been carried out to determine and compare the antitumour activity of these compounds, using an adapted form of the method described by Bergeron et al (1984). The tumour cell line employed have been P-388 (suspension culture of a lymphoid neoplasm from DBA/2 mouse), A-549 (monolayer culture of a human lung carcinoma), HT-29 (monolayer culture of a human colon carcinoma) and MEL-28 (monolayer culture of a human melanoma).
P-388 cell were seeded into 16 mm wells at 1×10^4 cells per well in 1 ml aliquots of MEM 5FCS containing the indicated concentration of drug. A separate set of cultures without drug was seeded as control growth to ensure that cells remained in exponential phase of growth. All determinations were carried out in duplicate.

[3] = system: HT-29 (monolayer culture of a human colon carcinoma); experiment: Cytotoxic activity screening, HT-29 cells; settings: three days of incubation, Crystal Violet, approximate IC50; for IC50: Homo sapiens, HT-29, 72 h
Procedure: as §1, §2

DU-145 = experiment: Cytotoxic activity screening, DU-145 cells; settings: for IC50: Homo sapiens, DU-145, DU-145 cells
Procedure: [The source words this procedure for another cell line and reports this cell line under the same test.] as §1, §3
Examples of biological activities of the compounds described in the present application are in Table IV (IC50 (ng/mL)) on the following pages.

[4] = system: MEL-28 (monolayer culture of a human melanoma); experiment: Cytotoxic activity screening, MEL-28 cells; settings: three days of incubation, Crystal Violet, approximate IC50; for IC50: Homo sapiens, SK-MEL-28, 72 h
Procedure: as §1, §3
as §2, with “A-549, HT-29 and MEL-28 were seeded into 16 mm wells at 2×10^4 cells per well in 1 ml aliquots of MEM 10FCS containing the indicated concentration of drug. A separate” for “A separate”

In the case of `COc1c(C)cc2c(c1O)[C@@H]1C3[C@@H]4SC[C@H](NC(=O)C(F)(F)F)C(=O)OC[C@@H](c5c6c(c(C)c(OC(C)=O)c54)OCO6)N3[C@@H](O)[C@H](C2)N1C` (stereo in doubt) [Compound 4b], the IC50 [1] is reported as 0.5 ng/mL (≈ 0.705 nM), the IC50 [2] is reported as 0.5 ng/mL (≈ 0.705 nM) and the IC50 [3] is reported as 0.5 ng/mL (≈ 0.705 nM). It also gave an IC50 (DU-145) of 0.5 ng/mL (≈ 0.705 nM) and an IC50 [4] of 0.5 ng/mL (≈ 0.705 nM).
For `COc1c(C)cc2c(c1O)[C@@H]1C3[C@@H]4SC[C@H](NC(=O)/C=C/c5ccccc5)C(=O)OC[C@@H](c5c6c(c(C)c(OC(C)=O)c54)OCO6)N3[C@@H](O)[C@H](C2)N1C` (stereo in doubt) [Compound 4h], the IC50 [1] was 0.5 ng/mL (≈ 0.672 nM), the IC50 [2] was 0.5 ng/mL (≈ 0.672 nM) and the IC50 [3] was 0.5 ng/mL (≈ 0.672 nM). It also gave an IC50 (DU-145) of 0.5 ng/mL (≈ 0.672 nM) and an IC50 [4] of 0.5 ng/mL (≈ 0.672 nM).
`COc1c(C)cc2c(c1O)[C@@H]1C3[C@@H]4SC[C@@H](NC(C)=O)C(=O)OC[C@@H](c5c6c(c(C)c(OC(C)=O)c54)OCO6)N3[C@@H](C#N)[C@H](C2)N1C` (some centres unmarked) [Compound 3a] gave an IC50 [1] of 0.5 ng/mL (≈ 0.752 nM), an IC50 [2] of 0.5 ng/mL (≈ 0.752 nM) and an IC50 [3] of 0.5 ng/mL (≈ 0.752 nM). It also gave an IC50 (DU-145) of 0.5 ng/mL (≈ 0.752 nM) and an IC50 [4] of 0.5 ng/mL (≈ 0.752 nM).
`COc1c(C)cc2c(c1O)[C@@H]1C3[C@@H]4SC[C@H](NC(=O)C(F)(F)F)C(=O)OC[C@@H](c5c6c(c(C)c(OC(C)=O)c54)OCO6)N3[C@@H](C#N)[C@H](C2)N1C` (some centres unmarked) [Compound 3b] was tested, and the IC50 [1] was 1 ng/mL (≈ 1.39 nM), the IC50 [2] was 1 ng/mL (≈ 1.39 nM) and the IC50 [3] was 1 ng/mL (≈ 1.39 nM). For the same compound, the IC50 (DU-145) was 1 ng/mL (≈ 1.39 nM) and the IC50 [4] was 1 ng/mL (≈ 1.39 nM).
In the case of `CCCC(=O)N[C@H]1CS[C@@H]2c3c(OC(C)=O)c(C)c4c(c3[C@H](COC1=O)N1C2[C@H]2c3c(cc(C)c(OC)c3O)C[C@@H]([C@@H]1C#N)N2C)OCO4` (some centres unmarked) [Compound 3c], the IC50 [1] is reported as 0.1 ng/mL (≈ 0.144 nM), the IC50 [2] is reported as 0.1 ng/mL (≈ 0.144 nM) and the IC50 [3] is reported as 0.1 ng/mL (≈ 0.144 nM). The IC50 (DU-145) was 0.1 ng/mL (≈ 0.144 nM) and the IC50 [4] was 0.1 ng/mL (≈ 0.144 nM).
For `COc1c(C)cc2c(c1O)[C@@H]1C3[C@@H]4SC[C@H](NC(=O)CC(C)C)C(=O)OC[C@@H](c5c6c(c(C)c(OC(C)=O)c54)OCO6)N3[C@@H](C#N)[C@H](C2)N1C` (some centres unmarked) [Compound 3d], the IC50 [1] was 0.1 ng/mL (≈ 0.141 nM), the IC50 [2] was 0.1 ng/mL (≈ 0.141 nM) and the IC50 [3] was 0.1 ng/mL (≈ 0.141 nM). It also gave an IC50 (DU-145) of 0.1 ng/mL (≈ 0.141 nM) and an IC50 [4] of 0.1 ng/mL (≈ 0.141 nM).
`CCCCCCCC(=O)N[C@H]1CS[C@@H]2c3c(OC(C)=O)c(C)c4c(c3[C@H](COC1=O)N1C2[C@H]2c3c(cc(C)c(OC)c3O)C[C@@H]([C@@H]1C#N)N2C)OCO4` (some centres unmarked) [Compound 3e] was tested, and the IC50 [1] was 1 ng/mL (≈ 1.34 nM), the IC50 [2] was 1 ng/mL (≈ 1.34 nM) and the IC50 [3] was 1 ng/mL (≈ 1.34 nM). For the same compound, the IC50 (DU-145) was 1 ng/mL (≈ 1.34 nM) and the IC50 [4] was 1 ng/mL (≈ 1.34 nM).
For `CCCCCCCCCCCCCCCC(=O)N[C@H]1CS[C@@H]2c3c(OC(C)=O)c(C)c4c(c3[C@H](COC1=O)N1C2[C@H]2c3c(cc(C)c(OC)c3O)C[C@@H]([C@@H]1C#N)N2C)OCO4` (some centres unmarked) [Compound 3f], the “IC50 A-549” value [1] was >1-10^3 ng/mL, the “IC50 P-388” value [2] was >1-10^3 ng/mL and the “IC50 HT-29” value [3] was >1-10^3 ng/mL. The “IC50 DU-145” value (DU-145; DU-145 cells) was >1-10^3 ng/mL and the “IC50 MEL-28” value [4] was >1-10^3 ng/mL.
For `COc1c(C)cc2c(c1O)[C@@H]1C3[C@@H]4SC[C@H](NC(=O)c5ccccc5)C(=O)OC[C@@H](c5c6c(c(C)c(OC(C)=O)c54)OCO6)N3[C@@H](C#N)[C@H](C2)N1C` (some centres unmarked) [Compound 3g], the IC50 [1] was 0.1 ng/mL (≈ 0.138 nM), the IC50 [2] was 0.1 ng/mL (≈ 0.138 nM) and the IC50 [3] was 0.1 ng/mL (≈ 0.138 nM). For the same compound, the IC50 (DU-145) was 0.1 ng/mL (≈ 0.138 nM) and the IC50 [4] was 0.1 ng/mL (≈ 0.138 nM).
`COc1c(C)cc2c(c1O)[C@@H]1C3[C@@H]4SC[C@H](NC(=O)/C=C/c5ccccc5)C(=O)OC[C@@H](c5c6c(c(C)c(OC(C)=O)c54)OCO6)N3[C@@H](C#N)[C@H](C2)N1C` (some centres unmarked) [Compound 3h] gave an IC50 [1] of 0.5 ng/mL (≈ 0.664 nM), an IC50 [2] of 0.5 ng/mL (≈ 0.664 nM) and an IC50 [3] of 0.5 ng/mL (≈ 0.664 nM). The IC50 (DU-145) was 0.5 ng/mL (≈ 0.664 nM) and the IC50 [4] was 0.5 ng/mL (≈ 0.664 nM).
`COc1c(C)cc2c(c1O)[C@@H]1C3[C@@H]4SC[C@H](NC(=O)/C=C/c5ccc(C(F)(F)F)cc5)C(=O)OC[C@@H](c5c6c(c(C)c(OC(C)=O)c54)OCO6)N3[C@@H](C#N)[C@H](C2)N1C` (some centres unmarked) [Compound 3i] gave an IC50 [1] of 5 ng/mL (≈ 6.09 nM), an IC50 [2] of 5 ng/mL (≈ 6.09 nM) and an IC50 [3] of 5 ng/mL (≈ 6.09 nM). The IC50 (DU-145) was 5 ng/mL (≈ 6.09 nM) and the IC50 [4] was 5 ng/mL (≈ 6.09 nM).
In the case of `COc1c(C)cc2c(c1O)[C@@H]1C3[C@@H]4SC[C@H](N5C(=O)c6ccccc6C5=O)C(=O)OC[C@@H](c5c6c(c(C)c(OC(C)=O)c54)OCO6)N3[C@@H](C#N)[C@H](C2)N1C` (some centres unmarked) [Compound 3j], the IC50 [1] is reported as 5 ng/mL (≈ 6.64 nM), the IC50 [2] is reported as 5 ng/mL (≈ 6.64 nM) and the IC50 [3] is reported as 5 ng/mL (≈ 6.64 nM). It also gave an IC50 (DU-145) of 5 ng/mL (≈ 6.64 nM) and an IC50 [4] of 5 ng/mL (≈ 6.64 nM).
Work on `COc1c(C)cc2c(c1O)[C@@H]1C3[C@@H]4SC[C@H](NC(=O)CCCCC5SCC6NC(=O)NC65)C(=O)OC[C@@H](c5c6c(c(C)c(OC(C)=O)c54)OCO6)N3[C@@H](C#N)[C@H](C2)N1C` (some centres unmarked) [Compound 3k] yielded an IC50 [1] of 10 ng/mL (≈ 11.8 nM), an IC50 [2] of 10 ng/mL (≈ 11.8 nM) and an IC50 [3] of 5 ng/mL (≈ 5.89 nM). For the same compound, the IC50 (DU-145) was 5 ng/mL (≈ 5.89 nM) and the IC50 [4] was 5 ng/mL (≈ 5.89 nM).
